Results from paper PMC5595280, “Cytotoxicity and anti-tumor effects of new ruthenium complexes on triple negative breast cancer cells” (PLoS ONE, 2017).

Legend:
[1] = Water-octanol partition coefficient (stir-flask method); format: physicochemical; conditions: 24 h shaking, 37°C
Experimental: The water-octanol partition coefficients were determined by use of the stir-flask method. The complex was added in a mixture with equal volumes of water and octanol shaking by 24 h at 100 rpm and 37°C, samples were centrifuged for 5min at 300rpm, the organic and aqueous phases were separated. The concentration of drug in each phase was measured spectrophotometrically in order to determine values of P = [drug] (in octanol)/[drug] (in water).

MDA-MB-231 cells [2] = experiment: Matrigel transwell invasion assay; format: cell-based, human; conditions: 20 μM, 22 h
Experimental: The effect of different concentrations of complex (4) 5, 10 μM and 20 μM on MDA-MB-231 tumor cell invasiveness was determined by the ability to transmigrate through a layer of matrigel in a transwell chamber (BD Biosciences) as described earlier. Wells were rehydrated with the addition of 1mL of warm (37°C) incomplete culture medium for 2 h. MDA-MB-231 cells (0.5 x 10^5/350 μL) were loaded on the top of matrigel in a DMEM incomplete medium. DMEM medium supplemented with 10% FBS was placed on the bottom chamber of the transwell units. Twenty-two hours later, cells that remained in the upper chamber were removed using a cotton swab and invasive cells were fixed with methanol and stained with 1% toluidine blue. The invaded cells were quantified by manual counting and inhibition ratio was expressed as % of control.

pBR322 plasmid DNA = experiment: Agarose gel electrophoresis of plasmid DNA; format: binding; conditions: Ri 0.50, 18 h, 37°C
Experimental: Ten microliters of pBR322 plasmid DNA in a Tris-HCl buffer were incubated at 37°C for 18 h with molar ratios between 0.12 and 0.5. After incubation, 5 μL of each sample was separated by electrophoresis in a 1% agarose gel for 45 min at 100V using a Tris borate–EDTA buffer (TBE) and stained with ethidium bromide ([…] ethidium bromide per 40 mL agarose gel mixture). Samples of DNA with DMSO were used as controls. The DNA bands were visualized as an image using a UV light transilluminator (ChemiDoc MP, BioRad Laboratories).
The influence of the compounds on the tertiary structure of DNA was determined by their ability to modify the electrophoretic mobility of forms of pBR322 plasmid DNA (Fig 6C). Agarose gel electrophoresis was performed using pBR322 plasmid DNA in the absence and presence of the complexes. […] In Ri 0.12 and 0.25 complexes (1–3) show the corresponding open circular, linear and super coiled form. […] This means that the degree of super helicity of the DNA molecules has been altered, in the same way as that described previously for other coordination platinum(II) and palladium (II) compounds containing 7-azaindolyl ligand [36].

MCF-10A cells = experiment: Cell morphology (inverted microscope); format: cell-based, human; conditions: 50 μM, 24 h
Experimental: (§1) Exponentially growing MDA-MB-231, MCF-7 or MCF-10A cells were harvested, counted and seeded (1x10^5 cells/mL) and plated on sterile 12-well plates for 24 h. Cells were allowed to grow at 37°C in 5% CO2 overnight and then, treated or not (control) with different concentrations of the complexes (1–4) for 2 and 24 h. Cell morphology was examined under an inverted microscope (Nikon, T5100) with amplification of 100×.
(§2) In this work the cytotoxicity of the complexes was evaluated against the MDA-MB-231, MCF-7 and MCF-10A cells by morphology, clonogenic and MTT assays (Fig 2, Table 1). To investigate the effects on cell morphology, the complexes were incubated with cells at concentrations of 25 and 50 μM for 24 h.

MDA-MB-231 cells [3] = experiment: Cell morphology (inverted microscope); format: cell-based, human; conditions: MDA-MB-231, 50 μM, 24 h
Experimental: as §1, §2

[4] = tested on: Caspase-3, Caspase-9 and Bcl-2 protein levels in MDA-MB-231 cells; experiment: Western blotting of apoptosis related proteins; format: cell-based, human; conditions: even at 2.5 μM, 6 h
Experimental: MDA-MB-231 cells (1.0 x 10^6/plate) were incubated for 6 h with (2.5, 5 and 10μM) or without (control) the complex (4) in Petri dishes (6 cm) at 37°C in a humidified incubator with 5% CO2. After incubation, cells were lysed using RIPA buffer (150 mM NaCl; 50 mM Tris-HCl pH 7.4; 50 mM NaF; 2 mM EDTA; 1.0% NP-40; 0.5 mM Na-deoxycholate; 0.1% SDS, pH 8.0) and the content was transferred to a 1.5 mL microtube. Protein concentrations of supernatants were determined using DC Protein Assay kit (Bio-Rad). […] Beta-actin was used as endogenous control. Substrate development was performed using SuperSignal West Dura Extended Substrate reagent (Thermo Scientific). Specific bands were visualized with ChemiDoc MP imager (BioRad Laboratories) and quantified with Image J software, normalized to β-actin.

MDA-MB-231 cells [5] = experiment: Cell adhesion to ECM proteins; format: cell-based, human
Experimental: The effects of complex (4) on the adhesion of MDA-MB-231 cells were analyzed in 96-well plates (Corning) as described earlier. Vitronectin (1.0 μg), laminin (0.3 μg) or fibronectin (0.3 μg) immobilized on the plates in a cell adhesion buffer (20 mM HEPES, 150 mM NaCl, 5 mM KCl, 1 mM MgSO4 and 1 mM MnCl2 pH 7.35), overnight at 4°C. Collagen type I (10 μg) was dissolved in acetic acid (0.1%) and coated on the wells. On the next day, wells were blocked with adhesion buffer containing 1% BSA solution for 1h and then washed with 100 μL per well of adhesion buffer. Cells (5 x 10^4/100 μL) were incubated for 30 min with different concentrations of the complex (4) at 37°C 5% CO2 and then plated and incubated under the same conditions for a further 1h. Then the non-adhered cells were gently removed by washing and attached cells were fixed with 100 μL 70% ethanol for 10 min. Cells were stained with 0.5% crystal violet for 20min and the excess dye was removed by washing with PBS. The stained cells were diluted in 100 μL of 1% solution of sodium dodecyl sulfate (SDS) for 30min and reading of the plates was performed on ELISA reader at 595 nm wavelength.

MDA-MB-231 cells [6] = experiment: DAPI staining for nuclear fragmentation; format: cell-based, human; conditions: 60 and 70 μM, 3 h
Experimental: The apoptotic activity of the complex (4) was analyzed by DAPI staining and flow cytometry with PE-Annexin-V Apoptosis Detection Kit (BD Biosciences). For DAPI staining, MDA-MB-231 cells (2.0 x 10^4/100 μL) were seeded in 96-wells plates and maintained at 37°C in a humidified incubator with 5% CO2 for 24 h. In the next day, cells were treated with 60 and 70 μM of complex (4) and incubated for 3 h. Next, cells were washed with PBS, fixed with methanol and stained with DAPI 1 μg/mL (Life Technologies, Carlsbad, CA) in DMEM medium without FBS for 10 min. Fluorescence was captured in automated microscope ImageXpress® Micro XLS System (Molecular Devices).

With `CC(=O)[O-].F[P-](F)(F)(F)(F)F.[Ru+2].c1ccc(-c2ccccn2)nc1.c1ccc(P(CCCCP(c2ccccc2)c2ccccc2)c2ccccc2)cc1` [Complex (4), [Ru(CH3CO2)(dppb)(bipy)]PF6] as the compound, how does the “Log P” value [1] read?
The value was 0.77 ± 0.03.

And the “inhibition of invasion compared to control” value (MDA-MB-231 cells [2])?
The value was “approximately 80%”.

And the “electrophoretic mobility of super coiled pBR322 band” value (pBR322 plasmid DNA)?
The value was “increased the electrophoretic mobility”.

What about the “effect on cell morphology / cell density” value (MCF-10A cells) of the same compound?
The value was “profoundly altered their morphology”.

And the “effect on cell morphology” value (MDA-MB-231 cells [3])?
Its value is “profoundly altered their morphology”.

What about the “cleaved Caspase-3 protein levels” value [4] of the same compound?
The value was “increased”.

And the “cleaved Caspase-9 protein levels” value [4]?
The value was “increased”.

What about the “inhibition of cell adhesion to type I collagen” value (MDA-MB-231 cells [5]; 20 μM) of the same compound?
Its value is “approximately 35%”.

What about the “inhibition of cell adhesion to fibronectin, laminin and vitronectin” value (MDA-MB-231 cells [5]; 40 μM) of the same compound?
Its value is “about 65%”.

And the “inhibition of cell adhesion to type I collagen” value (MDA-MB-231 cells [5]; 40 μM)?
The value was ~50%.

And the “effect on cell adhesion to fibronectin, laminin and vitronectin” value (MDA-MB-231 cells [5]; all concentrations tested)?
The value was “inhibited cell adhesion”.

And the “apoptotic nuclei (DAPI)” value (MDA-MB-231 cells [6])?
Its value is “more apoptotic nucleic”.
